Columns and labels:
[1] = tested on: PGD2; conditions: dosed intranasally, phase I/II study, allergic rhinitis; cited from earlier work
[2] = phase II clinical trial for allergic rhinitis; cited from earlier work
[3] = molecular target: recombinant human GST-SYK (Homo sapiens (Human), UniProt P43405); test: Homogeneous Time-Resolved Fluorescence (HTRF) Assay for the Recombinant Human Syk Enzyme; format: biochemical; conditions: GST-SYK 5 pM, ATP 25 μM, biotinylated substrate peptide 250 nM, HTRF signal
Method: Homogeneous Time-Resolved Fluorescence (HTRF) Assay for the Recombinant Human Syk Enzyme
A recombinant GST-hSYK fusion protein was used to measure potency of compounds to inhibit human Syk activity. The recombinant human GST-SYK (Carna Biosciences #08-176) (5 pM final concentration) was incubated with various concentrations of the inhibitor diluted in DMSO (0.1% final concentration) for 10 minutes at room temperature in 15 mM Tris-HCl (pH 7.5), 0.01% tween 20, 2 mM DTT in 384 well plate format. To initiate the reaction the biotinylated substrate peptide (250 nM final concentration) that contains the phosphorylation site for Syk was added with magnesium (5 mM final concentration) and ATP (25 μM final concentration). Final volume of the reaction was 10 μL. Phosphorylation of the peptide was allowed to proceed for 45′ at room temperature. To quench the reaction and detect the phosphorylated product, 2 nM of a Europium-anti-phosphotyrosine antibody (Perkin Elmer #AD0161) and 70 nM SA-APC (Perkin-Elmer #CR130-100) were added together in 15 mM Tris pH 7.5, 40 mM EDTA, 0.01% tween 20. Final volume of the quenching solution was 10 μL.
The resulting HTRF signal was measured after 30 minutes on an EnVision (Perkin-Elmer) reader using a time-resolved fluorescence protocol. Table A below lists activities as IC50 values (nM) for representative compounds of the invention.

Oc1cccc(Nc2ncc(F)c(Nc3cccc(O)c3)n2)c1 [Example R112]
clinical safety [1]: safe across a range of indicators | decrease in PGD2 [1]: statistically significant decrease | efficacy versus placebo [2]: lack of efficacy versus placebo

Cc1ccc(F)c(-c2cc(Nc3nccc(C(F)(F)F)n3)cc(-c3cnc([C@]4(O)CC[C@@H](C(=O)O)C(C)(C)C4)s3)c2)c1 (single isomer, unassigned) [Example 2.22, (1R,4S or 1S,4R)-4-[5-(2′-fluoro-5′-methyl-5{[4-(trifluoromethyl)pyrimidin-2 yl]amino}biphenyl-3-yl)-1,3-thiazol-2-yl]-4-hydroxy-2,2-dimethylcyclohexanecarboxylic acid]
IC50 [3]: 46 nM
